Measurements from patent US20260124201A1, “CYCLOPENTANE COMPOUND” (Kissei Pharmaceutical Co., Ltd., priority 2022, published 2026).

target: T1, human OX2R (Homo sapiens, UniProt O43614); test: Measurement of OX2R agonist activity (intracellular calcium concentration change, Fluo4-AM, FDSS 7000); type: cell-based; conditions: compound concentration 10 μM; human OX2R-expressing CHO-K1 cells; 1 μM human orexin A peptide = 100%, medium alone = 0%
T1 construct: expressed in transfected cells
T1 sequence (O43614 1-444): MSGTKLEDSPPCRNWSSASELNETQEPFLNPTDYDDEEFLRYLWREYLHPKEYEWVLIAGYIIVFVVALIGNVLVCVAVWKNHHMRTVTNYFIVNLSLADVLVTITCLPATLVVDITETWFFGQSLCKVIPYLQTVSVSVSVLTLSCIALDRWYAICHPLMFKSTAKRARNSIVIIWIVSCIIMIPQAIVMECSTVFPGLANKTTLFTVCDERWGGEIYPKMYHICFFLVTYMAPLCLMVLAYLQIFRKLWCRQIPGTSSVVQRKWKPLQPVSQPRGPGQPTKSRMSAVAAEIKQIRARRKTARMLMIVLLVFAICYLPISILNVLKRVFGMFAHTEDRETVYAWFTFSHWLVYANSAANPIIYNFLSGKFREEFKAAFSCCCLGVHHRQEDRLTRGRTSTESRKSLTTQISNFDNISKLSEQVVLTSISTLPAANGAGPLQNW
Source text: The following abbreviations in the description, the figures and the tables have the following meanings, respectively. • AZADOL (registered trademark): 2-Hydroxy-2-azaadamantane • Boc2O: di-tert-butyl dicarbonate • DIPEA: N,N-diisopropylethylamine • DCM: dichloromethane • DMAP: 4-dimethylaminopyridine • DMF: N,N-dimethylformamide • DMSO: dimethylsulfoxide • Deoxo-Fluor: bis(2-methoxyethyl)-aminosulfur trifluoride • HATU: O-(7-azabenzotriazol-1-yl)-N,N,N′,N′-tetramethyluronium hexafluorophosphate • LDA: lithium diisopropylamide • MeCN: acetonitrile • Me4tBuXPhos: 2-di-tert-butylphosphino-3,4,5,6-tetramethyl-2′,4′,6′-triisopropyl-1,1′-biphenyl • MTBE: methyl tert-butyl ether • NMP: N-methylpyrrolidone • PdCl2(PPh3)2: dichlorobis(triphenylphosphine)palladium(II) • Pd(dba)2: bis(dibenzylideneacetone)palladium(0) • Pd2(dba)3: tris(dibenzylideneacetone)dipalladium(0) • Pd(dppf)Cl2: [1,1′-bis(diphenylphosphino)ferrocene]dichloropalladium(II) • Pd(PPh3)4: tetrakis(triphenylphosphine)palladium(0) • TEA: triethylamine • TFA: trifluoroacetic acid • THF: tetrahydrofuran • Xphos: 2-dicyclohexylphosphino-2′,4′,6′-triisopropylbiphenyl • Xphos Pd G3: (2-dicyclohexylphosphino-2′,4′,6′-triisopropyl-1,1′-biphenyl)[2-(2′-amino-1,1′-biphenyl)]palladium(II) methanesulfonic acid salt • 10% Pd/C: Palladium 10% on Carbon (wetted with ca. 55% water) • APS: aminopropylated silica gel • ODS: octadecyl-silylated silica gel • Method A: column chromatography with an aminopropylated silica gel column followed by a silica gel column • Chiral preparative column chromatography: chiral preparative column chromatography using YMC CHIRALART Cellulose-SB • Ref. No.: Reference Example Number • Str.: structural formula • Ex. No.: Example Number • Phys. data: physical data • ^1H-NMR: hydrogen nuclear magnetic resonance spectrum • CDCl3: chloroform-d1 • MS: mass spectrometry (The measured values in the tables were measured by electrospray ionization or multiionization using electrospray ionization-atmospheric pressure chemical ionization.) • Act.: activation rate of test substance at a compound concentration of 10 μM calculated by setting the fluorescence intensity obtained when human orexin A peptide was added at a concentration of 1 μM as 100% and the fluorescence intensity obtained when the medium alone was added as 0% • CHO: Chinese hamster ovary • HEPES: 2-[4-(2-hydroxyethyl)-1-piperazinyl]ethanesulfonic acid
A human OX2R sequence (Accession No. NM_001526.4) was inserted into the multiple cloning site of pcDNA3.4 (Life Technologies Japan Ltd.) to clone a plasmid vector for human OX2R expression. The plasmid was introduced into CHO-K1 cells using Lipofectamine 2000 (Life Technologies Japan Ltd.). Two days later, the transgenic CHO-K1 cells were passaged into 175T flasks and cultured selectively for 6 days. As a selection medium, Ham's F-12 Nutrient Mix (Life Technologies Japan Ltd.), containing Geneticin (registered trademark) (Life Technologies Japan Ltd.) at a final concentration of 1 mg/mL and inactivated fetal bovine serum (Biowest) at a final concentration of 10%, was used. After the selective culture, the cells were reseeded into 96-well plates, and a human OX2R-expressing cell line was obtained by limiting dilution.
The agonist effects of test substances on human OX2R were evaluated using the intracellular calcium concentration-change upon stimulation as an indicator. A day before measurement of the intracellular calcium concentrations, human OX2R-expressing cells suspended in a medium were seeded into 384-well plates at 5×10^3 cells/50 μL/well and cultured overnight in an incubator set at 37° C. and 5% CO2. After incubation, the medium was removed and replaced with 20 μL of a loading buffer. […]

SMILES | Act. (%): activation rate of test substance
CONC(=O)[C@@]1(Cc2cccc(-c3ncccn3)c2)CC[C@H](NS(C)(=O)=O)C1 (relative stereo) [Example 29, (1R*,3S*)—N-Methoxy-3-(methylsulfonamido)-1-(3-(pyrimidin-2-yl)benzyl)cyclopentane-1-carboxamide] | 47%
CN(O)C(=O)[C@@]1(Cc2cccc(-c3ncccn3)c2)CC[C@H](NS(C)(=O)=O)C1 (relative stereo) [Example 30, (1R*,3S*)—N-Hydroxy-N-methyl-3-(methylsulfonamido)-1-(3-(pyrimidin-2-yl)benzyl)cyclopentane-1-carboxamide] | 48%
CON(C)C(=O)[C@@]1(Cc2cccc(-c3ncccn3)c2)CC[C@H](NS(=O)(=O)C2(C)CC2)C1 (relative stereo) [Example 31, (1R*,3S*)—N-Methoxy-N-methyl-3-((1-methylcyclopropane)-1-sulfonamido)-1-(3-(pyrimidin-2-yl)benzyl)cyclopentane-1-carboxamide] | 107%
CON(C)C(=O)[C@@]1(Cc2cccc(-c3ncccn3)c2)C[C@@H](F)[C@H](NS(C)(=O)=O)C1 (relative stereo) [Example 32, (1R*,3R*,4R*)-3-Fluoro-N-methoxy-N-methyl-4-(methylsulfonamido)-1-(3-(pyrimidin-2-yl)benzyl)cyclopentane-1-carboxamide] | 89%
CON(C)C(=O)[C@@]1(Cc2cccc(-c3ncccn3)c2)C[C@H](F)[C@H](NS(C)(=O)=O)C1 (relative stereo) [Example 33] | 83%
CON(C)C(=O)[C@@]1(Cc2ccc(F)c(-c3ncc(F)cn3)c2)C[C@H](F)[C@H](NS(=O)(=O)N(C)C)C1 (relative stereo) [Example 34, (1R*,3R*,4S*)-3-((N,N-Dimethylsulfamoyl)amino)-4-fluoro-1-(4-fluoro-3-(5-fluoropyrimidin-2-yl)benzyl)-N-methoxy-N-methylcyclopentane-1-carboxamide] | 90%
CON(C)C(=O)[C@@]1(Cc2cccc(-c3ncc(F)cn3)c2)C[C@H](F)[C@H](NS(=O)(=O)N(C)C)C1 (relative stereo) [Example 35, (1R*,3R*,4S*)-3-((N,N-Dimethylsulfamoyl)amino)-4-fluoro-1-(3-(5-fluoropyrimidin-2-yl)benzyl)-N-methoxy-N-methylcyclopentane-1-carboxamide] | 92%
CCS(=O)(=O)N[C@@H]1C[C@@](Cc2ccc(F)c(-c3ncc(F)cn3)c2)(C(=O)N(C)OC)C[C@@H]1F (relative stereo) [Example 36, (1R*,3R*,4S*)-3-(Ethylsulfonamido)-4-fluoro-1-(4-fluoro-3-(5-fluoropyrimidin-2-yl)benzyl)-N-methoxy-N-methylcyclopentane-1-carboxamide] | 84%
CON(C)C(=O)[C@@]1(Cc2cc(-c3ncc(F)cn3)ccc2F)C[C@H](F)[C@H](NS(C)(=O)=O)C1 (relative stereo) [Example 37, (1R*,3S*,4R*)-3-Fluoro-1-(2-fluoro-5-(5-fluoropyrimidin-2-yl)benzyl)-N-methoxy-N-methyl-4-(methylsulfonamido)cyclopentane-1-carboxamide] | 90%
CON(C)C(=O)[C@@]1(Cc2cc(-c3ncccn3)ccc2F)C[C@H](F)[C@H](NS(=O)(=O)C(F)(F)F)C1 (relative stereo) [Example 38, (1R*,3S*,4R*)-3-Fluoro-1-(2-fluoro-5-(pyrimidin-2-yl)benzyl)-N-methoxy-N-methyl-4-((trifluoromethyl)sulfonamido)cyclopentane-1-carboxamide] | 93%
CON(C)C(=O)[C@@]1(Cc2ccc(O)c(-c3ncc(F)cn3)c2)C[C@H](F)[C@H](NS(C)(=O)=O)C1 (relative stereo) [Example 39, (1R*,3S*,4R*)-3-Fluoro-1-(3-(5-fluoropyrimidin-2-yl)-4-hydroxybenzyl)-N-methoxy-N-methyl-4-(methylsulfonamido)cyclopentane-1-carboxamide] | 91%
CON(C)C(=O)[C@]1(Cc2cccc(-c3ncccn3)c2)C[C@@H](NS(C)(=O)=O)C(F)(F)C1 (relative stereo) [Example 40, (1R*,4R*)-3,3-Difluoro-N-methoxy-N-methyl-4-(methylsulfonamido)-1-(3-(pyrimidin-2-yl)benzyl)cyclopentane-1-carboxamide] | 88%
CON(C)C(=O)[C@]1(Cc2cccc(-c3ncc(F)cn3)c2)C[C@@H](NS(=O)(=O)N(C)C)C(F)(F)C1 (relative stereo) [Example 41] | 93%
CON(C)C(=O)[C@]1(Cc2ccc(F)c(-c3ncc(F)cn3)c2)C[C@@H](NS(C)(=O)=O)C(F)(F)C1 (relative stereo) [Example 42] | 87%
CON(C)C(=O)[C@]1(Cc2cc(-c3ncc(F)cn3)ccc2F)C[C@@H](NS(C)(=O)=O)C(F)(F)C1 (relative stereo) [Example 43] | 93%
CON(C)C(=O)[C@@]1(Cc2cccc(-c3ncc(F)cn3)c2)C[C@@H](C)[C@H](NS(C)(=O)=O)C1 (relative stereo) [Example 44, (1R*,3R*,4R*)-1-(3-(5-Fluoropyrimidin-2-yl)benzyl)-N-methoxy-N,3-dimethyl-4-(methylsulfonamido)cyclopentane-1-carboxamide] | 96%
CON(C)C(=O)[C@@]1(Cc2cccc(-c3ncc(F)cn3)c2)C[C@H](C)[C@H](NS(C)(=O)=O)C1 (relative stereo) [Example 45, (1R*,3S*,4R*)-1-(3-(5-Fluoropyrimidin-2-yl)benzyl)-N-methoxy-N,3-dimethyl-4-(methylsulfonamido)cyclopentane-1-carboxamide] | 93%
COCCNC(=O)[C@@]1(Cc2cccc(-c3ccccc3)c2)CC[C@H](NS(C)(=O)=O)C1 (relative stereo) [Example 69] | 44%
CO[C@H]1CCN(C(=O)[C@@]2(Cc3cccc(-c4ccccc4)c3)CC[C@H](NS(C)(=O)=O)C2)C1 (relative stereo) [Example 70] | 27%
CS(=O)(=O)N[C@H]1CC[C@](Cc2cccc(-c3ccccc3)c2)(C(=O)N2CCCC2C(F)(F)F)C1 (relative stereo) [Example 71, N-((1S*,3R*)-3-([1,1′-Biphenyl]-3-ylmethyl)-3-(2-(trifluoromethyl)pyrrolidine-1-carbonyl)cyclopentyl)methanesulfonamide] | 41%
CS(=O)(=O)N[C@H]1CC[C@](Cc2cccc(-c3ccccc3)c2)(C(N)=O)C1 (relative stereo) [Example 72, (1R*,3S*)-1-([1,1′-Biphenyl]-3-ylmethyl)-3-(methylsulfonamido)cyclopentane-1-carboxamide] | 23%
